Key:
Type in all cases: cell-based
[1] = test system: Candida albicans MYA576 (resistant to nystatin); experiment: Filter paper disc antifungal assay on agar plates; conditions: 5 mm disc, 37° C. 24 hours
Experimental: (§1) Compound 22 (the chloride salt) of table 1 was dissolved and the solution applied to a filter paper disc of diameter 5 mm. The filter paper discs were placed on plates containing the following strains of Candida albicans:
MYA576 (resistant to nystatin).
(§2) The compound was applied at concentrations of 0.5, 1, 5, 10, 25 and 50 μg/ml. Nystatin and fluconazole at the same concentrations were applied in the same manner. […] All strains were tested at least three times.
(§3) Clearly, the higher the number, the greater the antifungal activity.

[2] = test system: Candida albicans ATCC90028 (wild type); experiment: Filter paper disc antifungal assay on agar plates; conditions: 5 mm disc, 37° C. 24 hours
Experimental: as §1
ATCC90028 (“wild type”, i.e. not resistant to nystatin or fluconazole)
as §2, §3

[3] = test system: Escherichia coli (ATCC 25922); experiment: Growth in liquid media in presence of test compound
[4] = test system: Pseudomonas aeruginosa (ATCC 27853); experiment: as above
[5] = test system: Staphylococcus aureus (ATCC 25923); experiment: as above
[6] = test system: Mycobacterium tuberculosis (H37Rv); experiment: as above
E. faecalis = experiment: as above
Experimental: The strains were grown at 37° C. and after suitable cell concentrations had been reached, 100 μL of each cell suspension was added to a tube with growth media and test compound. Cultivation of the bacteria was then carried out in the presence of each test compound at 37° C. and the tubes examined for visible growth. The compounds were tested at concentrations of either 500 mg/l, 50 mg/l or 5 mg/l. This assay was repeated twice.
Some compounds were only tested against some test organisms. It will be appreciated that the charge of these molecules will depend on the environment, some of the Examples are shown with a suitable counter ion, some without.

[7] = test system: Candida albicans ATCC38247 (resistant to fluconazole); experiment: Filter paper disc antifungal assay on agar plates; conditions: 5 mm disc, 37° C. 24 hours
Experimental: as §1
ATCC38247 (resistant to fluconazole)
as §2, §3

[8] = test system: Candida albicans (ATCC 90028); experiment: Growth in liquid media in presence of test compound
[9] = test system: Streptococcus pyogenes (ATCC 19615); experiment: as above

Compound | Growth in the presence of test compound, E. coli ([3]; 5 mg/L) | Growth in the presence of test compound, E. coli ([3]; 50 mg/L) | Growth in the presence of test compound, E. coli ([3]; 500 mg/L) | Growth in the presence of test compound, P. aeruginosa ([4]; 5 mg/L) | Growth in the presence of test compound, P. aeruginosa ([4]; 50 mg/L) | Growth in the presence of test compound, P. aeruginosa ([4]; 500 mg/L) | Growth in the presence of test compound, S. aureus ([5]; 5 mg/L) | Growth in the presence of test compound, S. aureus ([5]; 50 mg/L) | Growth in the presence of test compound, S. aureus ([5]; 500 mg/L) | Growth in the presence of test compound, M. tuberculosis ([6]; 5 mg/L) | Growth in the presence of test compound, M. tuberculosis ([6]; 50 mg/L) | Growth in the presence of test compound, M. tuberculosis ([6]; 500 mg/L) | Growth in the presence of test compound, C. albicans ([8]; 5 mg/L) | Growth in the presence of test compound, C. albicans ([8]; 50 mg/L) | Growth in the presence of test compound, C. albicans ([8]; 500 mg/L) | Growth in the presence of test compound, S. pyogenes ([9]; 5 mg/L) | Growth in the presence of test compound, S. pyogenes ([9]; 50 mg/L) | Growth in the presence of test compound, S. pyogenes ([9]; 500 mg/L) | other results
C[C@@H]1[C@H](O)[C@@H](C)/C=C/C=C/CC/C=C/C=C/C=C/C=C/C(O[C@H]2O[C@H](C)[C@@H](O)[C@H](N)[C@@H]2O)CC2O[C@](O)(CC(O)C(O)CCC(O)CC(O)CC(O)CC(=O)O[C@H]1C)CC(O)C2C(=O)O (stereo partly drawn) [Nystatin, reference compound] |  |  |  |  |  |  |  |  |  |  |  |  |  |  |  |  |  |  | diameter of the area which did not show any Candida growth ([1]; MYA576, 0.5 μg/ml): 5 millimeters; diameter of the area which did not show any Candida growth ([1]; MYA576, 1 μg/ml): 5 millimeters; diameter of the area which did not show any Candida growth ([1]; MYA576, 5 μg/ml): 5 millimeters; diameter of the area which did not show any Candida growth ([1]; MYA576, 10 μg/ml): 6.17 millimeters; diameter of the area which did not show any Candida growth ([1]; MYA576, 25 μg/ml): 7.33 millimeters; diameter of the area which did not show any Candida growth ([1]; MYA576, 50 μg/ml): 9 millimeters; diameter of the area which did not show any Candida growth ([2]; ATCC90028, 0.5 μg/ml): 6.25 millimeters; diameter of the area which did not show any Candida growth ([2]; ATCC90028, 1 μg/ml): 7.25 millimeters; diameter of the area which did not show any Candida growth ([2]; ATCC90028, 5 μg/ml): 9.25 millimeters; diameter of the area which did not show any Candida growth ([2]; ATCC90028, 10 μg/ml): 14.75 millimeters; diameter of the area which did not show any Candida growth ([2]; ATCC90028, 25 μg/ml): 19.25 millimeters; diameter of the area which did not show any Candida growth ([2]; ATCC90028, 50 μg/ml): 20.25 millimeters
NCCCCC(N)C(=O)NC(CB(O)O)Cc1ccccc1 (stereo not drawn) [Compound 34] | + | + | − | + | + | − | + | + | − | + | − | − |  |  |  |  |  |  | Growth in the presence of test compound, E. faecalis (E. faecalis; 5 mg/L): +; Growth in the presence of test compound, E. faecalis (E. faecalis; 50 mg/L): +; Growth in the presence of test compound, E. faecalis (E. faecalis; 500 mg/L): −
OC(Cn1cncn1)(Cn1cncn1)c1ccc(F)cc1F [Fluconazole, reference compound] |  |  |  |  |  |  |  |  |  |  |  |  |  |  |  |  |  |  | diameter of the area which did not show any Candida growth ([7]; ATCC38247, 0.5 μg/ml): 5 millimeters; diameter of the area which did not show any Candida growth ([7]; ATCC38247, 1 μg/ml): 5 millimeters; diameter of the area which did not show any Candida growth ([7]; ATCC38247, 5 μg/ml): 5 millimeters; diameter of the area which did not show any Candida growth ([7]; ATCC38247, 10 μg/ml): 5 millimeters; diameter of the area which did not show any Candida growth ([7]; ATCC38247, 25 μg/ml): 5 millimeters; diameter of the area which did not show any Candida growth ([7]; ATCC38247, 50 μg/ml): 5 millimeters; diameter of the area which did not show any Candida growth ([2]; ATCC90028, 0.5 μg/ml): 7.33 millimeters; diameter of the area which did not show any Candida growth ([2]; ATCC90028, 1 μg/ml): 13.33 millimeters; diameter of the area which did not show any Candida growth ([2]; ATCC90028, 5 μg/ml): 21.33 millimeters; diameter of the area which did not show any Candida growth ([2]; ATCC90028, 10 μg/ml): 25.66 millimeters; diameter of the area which did not show any Candida growth ([2]; ATCC90028, 25 μg/ml): 30 millimeters; diameter of the area which did not show any Candida growth ([2]; ATCC90028, 50 μg/ml): 31.33 millimeters
CC1(C)C2CC3OB(CC(Cc4ccccc4)NC(=O)C(N)CCCCN)OC3(C)C1C2 (stereo not drawn) [Compound 1] | + | + | − | + | + | ± | + | + | − | − | − | − |  |  |  |  |  |  | Growth in the presence of test compound, E. faecalis (E. faecalis; 5 mg/L): +; Growth in the presence of test compound, E. faecalis (E. faecalis; 50 mg/L): +; Growth in the presence of test compound, E. faecalis (E. faecalis; 500 mg/L): −
CC1(C)C2CC3OB(C[C@@H](Cc4ccccc4)NC(=O)[C@H](Cc4ccccc4)NC(=O)[C@@H](N)Cc4ccccc4)O[C@]3(C)C1C2.Cl (stereo partly drawn) [Compound 45] | + | + | + | + | + | + | + | ± | + | + | − | + | + | + | − | + | + | + | 
CC1(C)C2CC3OB([C@@H](CNC(=O)[C@@H](N)CCCNC(=N)N)Cc4ccccc4)O[C@]3(C)C1C2 (stereo partly drawn) [Compound 11] | + | + | − | + | + | − | + | + | − | ± | − | − | + | + | − | + | + | − | 
CC1(C)C2CC3OB([C@@H](CNC(=O)[C@H](N)CCCCN)Cc4ccccc4)O[C@]3(C)C1C2 (stereo partly drawn) [Compound 12] | + | + | − | + | + | ± | + | + | ± | ± | − | − | + | + | − | + | + | − | 

Source: US20150018311A1, “THERAPEUTIC BORON-CONTAINING COMPOUNDS” (priority 2012, published 2015)
